From ChEMBL document CHEMBL4483862, “Open-source discovery of chemical leads for next-generation chemoprotective antimalarials” (2018) come the findings set out here.

The test system of this assay is Plasmodium berghei. The experiment in a line: Luciferase/luciferin-expressing antifolate-resistant parasites were used to infect a culture of HepG2 cells that were pre-incubated with compounds. Infected hepatocytes emit light due to the luciferase reaction. Assay results are presented as the percent inhibition of light emission compared to control. […]. In kind it is functional. To be noted: sporozoite; for IC90: read-out: LUCIFERASE INFECTION ASSAY - IC90.

[1] abbreviates: read-out: LUCIFERASE INFECTION ASSAY - IC50.

SMILES strings stand for the structures. Where only a bound is given, the exact number is not on record here.

The term IC50 denotes the midpoint of a concentration-inhibition curve. The term IC90 denotes the point of the concentration-response curve where the effect stands at 90%. Consider `COc1ccc2c(c1)/C(=N/NC(=O)c1ccc(CSc3ccc(Cl)cc3)cc1)C(=O)N2`, for which the IC90 is above 10 µM. Under “FFLUC_HILL_SLOPE 11.4, FFLUC_R_SQUARED 0.124, PBLUC_HILL_SLOPE 3.43, PBLUC_R_SQUARED 0.087, read-out: LUCIFERASE INFECTION ASSAY - IC50”, the IC50 turned out to be 6.03 µM.
Consider `CC(C)=CC(=O)Nc1scc(-c2ccccc2)c1C(=O)OCC(=O)Nc1cc(C)on1`, for which the IC90 is above 10 µM. The IC50 under setting [1] was above 10 µM.
As to `COc1ccc(/C=C(\C#N)C(=O)N(CCCN2C(=O)c3cccc4cccc(c34)C2=O)c2ccc(C)cc2C)cc1`, the IC90 is above 10 µM. Also, for the setting “FFLUC_HILL_SLOPE 3.25, FFLUC_R_SQUARED 0.523, read-out: LUCIFERASE INFECTION ASSAY - IC50”, the IC50 was above 10 µM.
Consider `O=C(CCN1c2ccccc2Sc2ccccc21)N1CCCS/C1=N\c1ccccc1`, for which the IC90 was above 10 µM. For the same molecule, under setting [1], the IC50 was above 10 µM.
`CNc1nc2cnc(Nc3ccc(C(C)C)cc3)cc2n1Cc1ccc(OC)c(OC)c1`: the IC90 is above 10 µM. Also, the IC50 (PBLUC_HILL_SLOPE 2.59, PBLUC_R_SQUARED 0.223, read-out: LUCIFERASE INFECTION ASSAY - IC50) is 6.81 µM.
Consider `COc1ccc(C(NCC(=O)Nc2sccc2C(N)=O)c2ccccc2)cc1` (stereo unspecified), for which the IC90 is above 10 µM. Besides, the IC50 (PBLUC_HILL_SLOPE 3.52, PBLUC_R_SQUARED 0.517, read-out: LUCIFERASE INFECTION ASSAY - IC50) was 5.37 µM.
Turning to `COc1ccccc1CNc1ccnc2cc(Cl)ccc12`, the IC90 worked out at 3.82 µM. Besides, where the note is “HEPG2TOX_HILL_SLOPE 2.2, HEPG2TOX_R_SQUARED 0.908, PBLUC_HILL_SLOPE 13.6, PBLUC_R_SQUARED 0.424, read-out: LUCIFERASE INFECTION ASSAY - IC50”, the 50% inhibitory concentration (IC50) was found to be 3.25 µM.
Consider `C(=C(c1nc2ccccc2s1)c1nc2ccccc2s1)c1ccc(N2CCOCC2)cc1`, for which the IC90 worked out at 3.63 µM. Under setting [1], the IC50 came out at 0.749 µM.
As for `O=c1cc(C(F)(F)F)[nH]c2cc(C(F)(F)F)ccc12`, the 90% effect concentration (IC90) worked out at 4.25 µM. Moreover, the half-inhibitory concentration (IC50) (PBLUC_HILL_SLOPE 15.4, PBLUC_R_SQUARED 0.673, read-out: LUCIFERASE INFECTION ASSAY - IC50) worked out at 3.68 µM.
Consider `O=C(C(/C=N/O)=N/Nc1ccc(C(F)(F)F)cc1)c1ccc(Br)cc1`, for which the IC90 was 3.98 µM. In addition, the IC50 (FFLUC_HILL_SLOPE 17.5, FFLUC_R_SQUARED 0.273, HEPG2TOX_HILL_SLOPE 2.17, HEPG2TOX_R_SQUARED 0.985, PBLUC_HILL_SLOPE 7.45, PBLUC_R_SQUARED 0.303, read-out: LUCIFERASE INFECTION ASSAY - IC50) is 2.96 µM.
As for `CC(C)c1cc(Cl)n2ncc(-c3ccccc3)c2n1`, the IC90 was above 12.1 µM. For the same molecule, the IC50 (PBLUC_HILL_SLOPE 1.33, PBLUC_R_SQUARED 0.849, read-out: LUCIFERASE INFECTION ASSAY - IC50) amounted to 4.61 µM.
Turning to `COc1cccc(C(=O)Nc2cccc(Nc3ccc(-c4cccc(NC(C)=O)c4)cn3)c2)c1`, the IC90 was above 7.29 µM. Also, under setting [1], the IC50 was above 7.29 µM.
For the molecule `CC12CCC(=O)C(C(F)(F)F)=C1C=CC1C2CCC2(C)C(O)CCC12` (stereo unspecified), the IC90 amounted to 3.6 µM. The IC50 (HEPG2TOX_HILL_SLOPE 4.77, HEPG2TOX_R_SQUARED 0.78, PBLUC_HILL_SLOPE 14.8, PBLUC_R_SQUARED 0.24, read-out: LUCIFERASE INFECTION ASSAY - IC50) is 3.1 µM.
On to `O=c1c(Cl)c(Cl)cnn1-c1ccc(S(=O)(=O)Oc2ccccc2F)cc1`, for which the IC90 was determined as 8.08 µM. Also, the IC50 (FFLUC_HILL_SLOPE 1.28, FFLUC_R_SQUARED 0.46, HEPG2TOX_HILL_SLOPE 12.5, HEPG2TOX_R_SQUARED 0.895, PBLUC_HILL_SLOPE 2.73, PBLUC_R_SQUARED 0.311, read-out: LUCIFERASE INFECTION ASSAY - IC50) is 3.61 µM.
Turning to `CC(C)(C)OC(=O)Nc1ccc(C(=O)NCC2(c3ccccc3)CC2)cc1`, the IC90 was above 10 µM. The IC50 under setting [1] was above 10 µM.
Regarding `OC1CCC(Nc2nn3c(-c4cccc(OC(F)(F)F)c4)cnc3s2)CC1` (stereo unspecified), the IC90 is above 8.28 µM. Where the note is “FFLUC_HILL_SLOPE 6.8, FFLUC_R_SQUARED 0.0322, read-out: LUCIFERASE INFECTION ASSAY - IC50”, the half-inhibitory concentration (IC50) was above 8.28 µM.
Take `COc1ccccc1C(=O)c1cnc(Nc2cccc(-c3ccccc3)c2)[nH]1`: the IC90 is above 8.93 µM. The IC50 (HEPG2TOX_HILL_SLOPE 9.5, HEPG2TOX_R_SQUARED 0.78, PBLUC_HILL_SLOPE 12, PBLUC_R_SQUARED 0.218, read-out: LUCIFERASE INFECTION ASSAY - IC50) stood at 8.03 µM.
Take `Cc1cccc(C)c1Nc1nnc(C(O)c2ccc(F)c(Cl)c2)s1` (stereo unspecified): the IC90 was above 10 µM. For the same molecule, the IC50 (PBLUC_HILL_SLOPE 1.46, PBLUC_R_SQUARED 0.342, read-out: LUCIFERASE INFECTION ASSAY - IC50) was 2.96 µM.
For `COc1cc(OC)c(C(=O)/C=C/c2cccnc2)cc1Cl`, the IC90 worked out at 3.76 µM. Under setting [1], the IC50 is 3.3 µM.
As for `CNc1snc(C)c1C(=O)OCc1ccc(-n2cccn2)cc1`, the IC90 was found to be 1.04 µM. For the setting “HEPG2TOX_HILL_SLOPE 12.1, HEPG2TOX_R_SQUARED 0.465, PBLUC_HILL_SLOPE 2.29, PBLUC_R_SQUARED 0.748, read-out: LUCIFERASE INFECTION ASSAY - IC50”, the half-maximal inhibitory concentration (IC50) came out at 0.4 µM.
Regarding `CNc1nc2cnc(Nc3cccc(C(F)(F)F)c3)cc2n1Cc1ccco1`, the IC90 was above 10 µM. Also, the IC50 (HEPG2TOX_HILL_SLOPE 2.71, HEPG2TOX_R_SQUARED 0.929, read-out: LUCIFERASE INFECTION ASSAY - IC50) is above 10 µM.
As to `NC(=O)c1ccsc1NC(=O)Cc1coc2cc3c(cc12)CCC3`, the IC90 is 3.88 µM. Also, the IC50 (FFLUC_HILL_SLOPE 3.24, FFLUC_R_SQUARED 0.678, PBLUC_HILL_SLOPE 11.8, PBLUC_R_SQUARED 0.833, read-out: LUCIFERASE INFECTION ASSAY - IC50) came to 3.22 µM.
In the case of `O=C(Nc1ccccc1)c1cn(-c2ccc3c(c2)OCCO3)nn1`, the IC90 is 5.96 µM. For the same molecule, the IC50 (FFLUC_HILL_SLOPE 1.49, FFLUC_R_SQUARED 0.912, PBLUC_HILL_SLOPE 0.315, PBLUC_R_SQUARED 0.673, read-out: LUCIFERASE INFECTION ASSAY - IC50) worked out at 0.00562 µM.
On to `CCOC(=O)C1(C)CCCCN1C(=O)c1ccc(C(=O)OC)cc1` (stereo unspecified), for which the IC90 is above 9.9 µM. Besides, under setting [1], the IC50 was above 9.9 µM.
Regarding `Cn1cc(-c2cc3cnc(Nc4ccc(C(N)=O)cc4)cc3n2Cc2ccccc2)cn1`, the IC90 is above 10 µM. Besides, the IC50 under setting [1] was above 10 µM.
As to `CC(C)c1cccc(Nc2nnc(C(O)c3ccccc3Cl)s2)c1` (stereo unspecified), the 90% effect concentration (IC90) is above 10 µM. Further, the IC50 under setting [1] is above 10 µM.
Consider `Cn1cc(-c2cnc3ccc(Cc4ccc(F)cc4)nn23)cn1`, for which the 90% effect concentration (IC90) is above 10 µM. Under “PBLUC_HILL_SLOPE 1.72, PBLUC_R_SQUARED 0.782, read-out: LUCIFERASE INFECTION ASSAY - IC50”, the IC50 was determined as 4.99 µM.
As for `CCOC(=O)c1[nH]c(C)c(C(=O)/C=C/c2c(C)nn3c(C(F)(F)F)ccnc23)c1C`, the IC90 was 0.365 µM. For the same molecule, the IC50 (HEPG2TOX_HILL_SLOPE 1.29, HEPG2TOX_R_SQUARED 0.824, PBLUC_HILL_SLOPE 0.936, PBLUC_R_SQUARED 0.825, read-out: LUCIFERASE INFECTION ASSAY - IC50) is 0.0349 µM.
With `CCCn1c(NC(=O)c2ccc(OCc3c(C)noc3C)c(OC)c2)nc2ccccc21`, the IC90 is above 10 µM. For the same molecule, the IC50 (PBLUC_HILL_SLOPE 3.7, PBLUC_R_SQUARED 0.447, read-out: LUCIFERASE INFECTION ASSAY - IC50) is 6.12 µM.
`Cc1cc(NCc2ccccn2)n2nc(C)c(-c3ccccc3Cl)c2n1`: the concentration for an effect of 90% (IC90) is 5.5 µM. The IC50 (HEPG2TOX_HILL_SLOPE 4.48, HEPG2TOX_R_SQUARED 0.152, PBLUC_HILL_SLOPE 2.08, PBLUC_R_SQUARED 0.431, read-out: LUCIFERASE INFECTION ASSAY - IC50) was 1.91 µM.
Consider `Cc1sc2nc(CN3CCOCC3)nc(NCCc3c[nH]c4ccccc34)c2c1C`, for which the IC90 is above 10 µM. For the same molecule, the half-inhibitory concentration (IC50) under setting [1] was above 10 µM.
With `CN(C)CCn1c(=O)n(Cc2ccccc2)c(=O)c2c3c(sc21)CCCCC3`, the IC90 was above 8.3 µM. Also, where the note is “PBLUC_HILL_SLOPE 10.5, PBLUC_R_SQUARED 0.0293, read-out: LUCIFERASE INFECTION ASSAY - IC50”, the IC50 was found to be 7.95 µM.
For the molecule `COc1ccc(-c2cnc3cnc(-c4ccc(N5CCN(C)CC5)cc4)cn23)cn1`, the IC90 was above 8.24 µM. In addition, the IC50 under setting [1] is above 8.24 µM.
As to `COc1ccc(Cl)cc1C(=O)NNC(=O)CSc1nccn1-c1ccc(C)c(C)c1`, the IC90 worked out at 6.58 µM. Besides, the IC50 (PBLUC_HILL_SLOPE 46.1, PBLUC_R_SQUARED 0.54, read-out: LUCIFERASE INFECTION ASSAY - IC50) is 6.27 µM.
Turning to `NC(=O)c1ccsc1NC(=O)c1cc(-c2ccccc2)nn1-c1ccccc1`, the IC90 was found to be 3.68 µM. For the same molecule, the IC50 (PBLUC_HILL_SLOPE 12.3, PBLUC_R_SQUARED 0.697, read-out: LUCIFERASE INFECTION ASSAY - IC50) stood at 3.08 µM.
For `Cc1cc(C)c(CSC2=NCCCN2C2CCCCC2)c(C)c1`, the IC90 was above 8.99 µM. The half-inhibitory concentration (IC50) under setting [1] is above 8.99 µM.
Consider `Cc1c(C(=O)Nc2ccc(N3CCN(C)CC3)nc2)cnn1-c1ccc(C(F)(F)F)cn1`, for which the IC90 was above 10 µM. Moreover, the half-maximal inhibitory concentration (IC50) under setting [1] is above 10 µM.
As for `COc1cccc(/C=c2\s/c(=C\C(=O)C(C)(C)C)n(C)c2=O)c1OC(C)C`, the IC90 was above 10 µM. Besides, the IC50 (HEPG2TOX_HILL_SLOPE 1.82, HEPG2TOX_R_SQUARED 0.577, PBLUC_HILL_SLOPE 1.88, PBLUC_R_SQUARED 0.501, read-out: LUCIFERASE INFECTION ASSAY - IC50) amounted to 8.5 µM.
